{
  "source": "patent EP0255256A2",
  "about": "“Antibiotics produced by actinomadura parvosata” (SMITHKLINE BECKMAN CORPORATION, priority 1986, dated 1988)",
  "test_in_all_cases": "MIC, standard microtiter assay",
  "type_in_all_cases": "cell-based",
  "key": {"Staph. aureus 910": {"system": "Staph. aureus 910", "protocol": "(§1) The in vitro minimal inhibitory concentration (MIC) of the AAJ-271 complex and its factors, and vancomycin were determined for a number of microorganisms using the standard microtite'r assay procedures. The results are shown in the following tables, each of which represents a different production run of the complex.\n(§2) The in vitro minimal inhibitory concentration (MIC) and the in vitro minimal bactericidal concentration (MBC) of the AAJ-271 aglycones, pseudo-aglycone and vancomycin were determined for a number of microorganisms using the standard microtiter assay procedures."}, "Staph. aureus 209P": {"system": "Staph. aureus 209P", "settings": "Staphylococcus aureus, 209P, read-out: MIC in μg/ml, Staph. aureus 209P", "protocol": "as §1, §2"}, "Staph. epidermidis 2256": {"system": "Staph. epidermidis 2256", "settings": "Staphylococcus epidermidis, 2256, read-out: MIC in μg/ml, Staph. epidermidis 2256", "protocol": "as §1, §2"}, "Staph. epidermidis 2265": {"system": "Staph. epidermidis 2265", "settings": "Staphylococcus epidermidis, 2265, read-out: MIC in μg/ml, Staph. epidermidis 2265", "protocol": "as §1, §2"}, "Strep. faecalis 34358": {"system": "Strep. faecalis 34358", "settings": "Enterococcus faecalis, 34358, read-out: MIC in μg/ml, Strep. faecalis 34358", "protocol": "as §1, §2"}, "[1]": {"system": "Staph. saprophyticus 2657", "settings": "Staphylococcus saprophyticus, 2657, read-out: MIC in μg/ml, Staph. saprophyticus 2657", "protocol": "as §1, §2"}, "Strep. faecalis 657": {"system": "Strep. faecalis 657", "settings": "Enterococcus faecalis, 657, read-out: MIC in μg/ml, Strep. faecalis 657", "protocol": "as §1, §2"}, "Staph. aureus 675": {"system": "Staph. aureus 675", "settings": "Staphylococcus aureus, 675, read-out: MIC in μg/ml, Staph. aureus 675", "protocol": "as §1, §2"}, "Staph. aureus 2620": {"system": "Staph. aureus 2620", "settings": "Staphylococcus aureus, 2620, read-out: MIC in μg/ml, Staph. aureus 2620", "protocol": "as §1, §2"}, "Staph. epidermidis 2479": {"system": "Staph. epidermidis 2479", "settings": "Staphylococcus epidermidis, 2479, read-out: MIC in μg/ml, Staph. epidermidis 2479", "protocol": "as §1, §2"}, "Staph. epidermidis 2588": {"system": "Staph. epidermidis 2588", "settings": "Staphylococcus epidermidis, 2588, read-out: MIC in μg/ml, Staph. epidermidis 2588", "protocol": "as §1, §2"}, "[2]": {"system": "Strep. pyogenes (Group A)", "protocol": "as §1, §2"}, "Staph. haemolyticus 651": {"system": "Staph. haemolyticus 651", "protocol": "as §1, §2"}},
  "note": "Like-named read-outs stand apart in the source and are kept apart here.",
  "data": [
    {"compound": "CN[C@H](CC(C)C)C(=O)N[C@H]1C(=O)N[C@@H](CC(N)=O)C(=O)N[C@H]2C(=O)N[C@H]3C(=O)N[C@H](C(=O)N[C@H](C(=O)O)c4cc(O)cc(O)c4-c4cc3ccc4O)[C@H](O)c3ccc(c(Cl)c3)Oc3cc2cc(c3O[C@@H]2O[C@H](CO)[C@@H](O)[C@H](O)[C@H]2O[C@H]2C[C@](C)(N)[C@H](O)[C@H](C)O2)Oc2ccc(cc2Cl)[C@H]1O", "note": "[Vancomycin, vancomycin]", "values": [
      {"measurement": "MIC", "setting": "Staph. aureus 910; Staph. aureus 910, Table VIII", "value": 1.6, "unit": "µg/mL"},
      {"measurement": "MIC", "setting": "Staph. aureus 910; Staphylococcus aureus, 910, read-out: MIC in μg/ml", "value": 1.6, "unit": "µg/mL"},
      {"measurement": "MIC", "setting": "Staph. aureus 209P; Table I", "value": 1.6, "unit": "µg/mL"},
      {"measurement": "MIC", "setting": "Staph. aureus 209P; Table VIII", "value": 0.8, "unit": "µg/mL"},
      {"measurement": "MIC", "setting": "Staph. epidermidis 2256; Table I", "value": 1.6, "unit": "µg/mL"},
      {"measurement": "MIC", "setting": "Staph. epidermidis 2256; Table VIII", "value": 3.1, "unit": "µg/mL"},
      {"measurement": "MIC", "setting": "Staph. epidermidis 2265; Table I", "value": 1.6, "unit": "µg/mL"},
      {"measurement": "MIC", "setting": "Staph. epidermidis 2265; Table II", "value": 6.3, "unit": "µg/mL"},
      {"measurement": "MIC", "setting": "Staph. epidermidis 2265; Table IX", "value": 6.3, "unit": "µg/mL"},
      {"measurement": "MIC", "setting": "Staph. epidermidis 2265; Table VIII", "value": 3.1, "unit": "µg/mL"},
      {"measurement": "MIC", "setting": "Strep. faecalis 34358; Table I", "value": 1.6, "unit": "µg/mL"},
      {"measurement": "MIC", "setting": "Strep. faecalis 34358; Table II", "value": 6.3, "unit": "µg/mL"},
      {"measurement": "MIC", "setting": "Strep. faecalis 34358; Table IX", "value": 6.3, "unit": "µg/mL"},
      {"measurement": "MIC", "setting": "Strep. faecalis 34358; Table VIII", "value": 3.1, "unit": "µg/mL"},
      {"measurement": "MIC", "setting": "[1]; Table I", "value": 1.6, "unit": "µg/mL"},
      {"measurement": "MIC", "setting": "[1]; Table VIII", "value": 3.1, "unit": "µg/mL"},
      {"measurement": "MIC", "setting": "Strep. faecalis 657; Table I", "value": 1.6, "unit": "µg/mL"},
      {"measurement": "MIC", "setting": "Strep. faecalis 657; Table II", "value": 3.1, "unit": "µg/mL"},
      {"measurement": "MIC", "setting": "Strep. faecalis 657; Table IX", "value": 3.1, "unit": "µg/mL"},
      {"measurement": "MIC", "setting": "Strep. faecalis 657; Table VIII", "value": 3.1, "unit": "µg/mL"},
      {"measurement": "MIC", "setting": "Staph. aureus 675; Table I", "value": 1.6, "unit": "µg/mL"},
      {"measurement": "MIC", "setting": "Staph. aureus 675; Table II", "value": 3.1, "unit": "µg/mL"},
      {"measurement": "MIC", "setting": "Staph. aureus 675; Table IX", "value": 3.1, "unit": "µg/mL"},
      {"measurement": "MIC", "setting": "Staph. aureus 675; Table VIII", "value": 3.1, "unit": "µg/mL"},
      {"measurement": "MIC", "setting": "Staph. aureus 2620; Table I", "value": 1.6, "unit": "µg/mL"},
      {"measurement": "MIC", "setting": "Staph. aureus 2620; Table II", "value": 3.1, "unit": "µg/mL"},
      {"measurement": "MIC", "setting": "Staph. aureus 2620; Table IX", "value": 3.1, "unit": "µg/mL"},
      {"measurement": "MIC", "setting": "Staph. aureus 2620; Table VIII", "value": 1.6, "unit": "µg/mL"},
      {"measurement": "MIC", "setting": "Staph. epidermidis 2479; Table I", "value": 1.6, "unit": "µg/mL"},
      {"measurement": "MIC", "setting": "Staph. epidermidis 2479; Table II", "value": 6.3, "unit": "µg/mL"},
      {"measurement": "MIC", "setting": "Staph. epidermidis 2479; Table IX", "value": 6.3, "unit": "µg/mL"},
      {"measurement": "MIC", "setting": "Staph. epidermidis 2479; Table VIII", "value": 3.1, "unit": "µg/mL"},
      {"measurement": "MIC", "setting": "Staph. epidermidis 2588; Table I", "value": 1.6, "unit": "µg/mL"},
      {"measurement": "MIC", "setting": "Staph. epidermidis 2588; Table VIII", "value": 6.3, "unit": "µg/mL"},
      {"measurement": "MIC", "setting": "[2]; Strep. pyogenes (Group A), Table VIII", "value": 0.8, "unit": "µg/mL"},
      {"measurement": "MIC", "setting": "[2]; Streptococcus pyogenes, read-out: MIC in μg/ml", "value": 0.8, "unit": "µg/mL"},
      {"measurement": "MIC", "setting": "Staph. haemolyticus 651; Staph. haemolyticus 651, Table II", "value": 3.1, "unit": "µg/mL"},
      {"measurement": "MIC", "setting": "Staph. haemolyticus 651; Staph. haemolyticus 651, Table IX", "value": 3.1, "unit": "µg/mL"},
      {"measurement": "MIC", "setting": "Staph. haemolyticus 651; Staph. haemolyticus 651, Table VIII", "value": 3.1, "unit": "µg/mL"},
      {"measurement": "MIC", "setting": "Staph. haemolyticus 651; Staphylococcus haemolyticus, 651, read-out: MIC in μg/ml", "value": 3.1, "unit": "µg/mL"}
    ]}
  ]
}
